Here are results for 14 compounds from ChEMBL document CHEMBL1129210, “Epidermal growth factor receptor tyrosine kinase: Structure-activity relationships and antitumour activity of novel quinazolines” (Bioorg Med Chem Lett, 1997).

pIC50: −log10 of the molar value.

This assay concerns the target Epidermal growth factor receptor (Homo sapiens, UniProt P00533). Kind of assay: Tested for inhibition of Epidermal growth factor receptor from A431 vulval squamous carcinoma cells.

Chain of Epidermal growth factor receptor (P00533 whole entry): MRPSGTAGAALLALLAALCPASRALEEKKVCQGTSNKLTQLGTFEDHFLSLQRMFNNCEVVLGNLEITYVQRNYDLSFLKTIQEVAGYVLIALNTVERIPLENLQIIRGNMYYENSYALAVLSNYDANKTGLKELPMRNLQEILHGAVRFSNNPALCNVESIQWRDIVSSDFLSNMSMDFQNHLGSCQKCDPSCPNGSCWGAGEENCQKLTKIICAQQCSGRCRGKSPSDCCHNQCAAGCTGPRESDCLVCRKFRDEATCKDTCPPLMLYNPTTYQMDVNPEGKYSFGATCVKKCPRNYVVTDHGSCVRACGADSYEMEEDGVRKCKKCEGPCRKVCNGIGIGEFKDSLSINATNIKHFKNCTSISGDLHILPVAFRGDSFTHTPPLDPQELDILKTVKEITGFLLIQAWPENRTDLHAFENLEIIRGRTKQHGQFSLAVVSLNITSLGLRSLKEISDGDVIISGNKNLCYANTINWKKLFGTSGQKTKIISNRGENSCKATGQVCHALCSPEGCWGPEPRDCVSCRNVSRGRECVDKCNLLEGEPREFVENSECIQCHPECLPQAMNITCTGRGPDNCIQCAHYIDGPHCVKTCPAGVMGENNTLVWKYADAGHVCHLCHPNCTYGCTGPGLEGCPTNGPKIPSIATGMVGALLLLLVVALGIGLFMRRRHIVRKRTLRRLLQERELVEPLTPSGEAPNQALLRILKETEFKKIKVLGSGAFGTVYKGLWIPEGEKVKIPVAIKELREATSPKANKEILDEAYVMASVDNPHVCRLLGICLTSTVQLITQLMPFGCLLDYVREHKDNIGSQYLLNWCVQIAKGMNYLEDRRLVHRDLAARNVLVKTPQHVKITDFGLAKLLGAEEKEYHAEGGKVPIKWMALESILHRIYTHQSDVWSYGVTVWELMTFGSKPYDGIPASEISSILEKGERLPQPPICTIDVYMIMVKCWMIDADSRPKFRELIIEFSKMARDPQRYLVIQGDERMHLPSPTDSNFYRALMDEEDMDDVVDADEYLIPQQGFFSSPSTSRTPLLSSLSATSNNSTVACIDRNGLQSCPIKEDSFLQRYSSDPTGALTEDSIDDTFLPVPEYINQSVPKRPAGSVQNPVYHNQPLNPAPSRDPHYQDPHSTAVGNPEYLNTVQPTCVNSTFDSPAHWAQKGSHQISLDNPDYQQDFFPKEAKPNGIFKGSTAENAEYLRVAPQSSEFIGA

By pIC50 is commonly meant −log10 of the IC50, conventionally taken in molar units. The compound `COc1cc2ncnc(NC3CC3c3ccccc3)c2cc1OCCN1CCOCC1` (centres undefined) showed a pIC50 of 6.52.
For the compound `COc1cc2ncnc(N3CCc4ccccc43)c2cc1OC`, the pIC50 is 6.09.
For the compound `COc1cc2ncnc(NC3CCc4ccccc43)c2cc1OC` (centres undefined), the pIC50 was 6.04.
The result for `COc1cc2ncnc(Nc3nccc4ccccc34)c2cc1OC` reads 6.70; that for `COc1cc2ncnc(Nc3cnc4ccccc4n3)c2cc1OC`, 6.11.
The result for `COc1cc2ncnc(Nc3cncc4ccccc34)c2cc1OC` reads 8.19; that for `COc1cc2ncnc(NC3CC3c3ccccc3)c2cc1OC(C)=O` (centres undefined), 7.08; that for `COc1cc2ncnc(NC3CC3c3ccccc3)c2cc1OC` (centres undefined), 8.00.
Turning to `COc1cc2ncnc(NCc3cccc(C)c3)c2cc1OC`, the pIC50 was 6.77.
The result for `COc1cc2ncnc(NC3CC3c3ccccc3)c2cc1O` (centres undefined) reads 6.41; that for `COc1cc2ncnc(NNc3ccc(F)c(Cl)c3)c2cc1OC`, 6.37.
The result for `COc1cc2ncnc(NC3CC3c3ccccc3)c2cc1OCCCN(C)C` (centres undefined) reads 7.57; that for `COc1cc2ncnc(/N=N/c3ccc(F)c(Cl)c3)c2cc1OC`, 6.14.
Take `COc1cc2ncnc(Nc3nnc4ccccc4n3)c2cc1OC`: the pIC50 was 6.09.
